≈ marks a conversion by molar mass, not a printed value. One block for each molecule: values may come before it. Calls of active or inactive are those of the source. The calls are words filed in the database; no cut-off is given here.
How the values were obtained:
Candida albicans [1] = experiment: Inhibition of ergosterol in Candida albicans MTCC 183 after 20 hrs by UV spectrophotometric method; type: functional, organism-based
Candida albicans [2] = experiment: Antifungal activity against Candida albicans MTCC 183 after 24 hrs by well diffusion method; type: functional; details: MTCC 183, 24 h
Candida albicans [3] = experiment: Antifungal activity against Candida albicans MTCC 227 after 24 hrs by well diffusion method; type: functional
Candida albicans [4] = experiment: Antifungal activity against Candida albicans MTCC 854 after 24 hrs by well diffusion method; type: functional
Candida albicans [5] = experiment: Antifungal activity against Candida albicans MTCC 1637 after 24 hrs by well diffusion method; type: functional
Candida albicans [6] = experiment: Antifungal activity against Candida albicans MTCC 3018 after 24 hrs by well diffusion method; type: functional
Candida albicans [7] = experiment: Antifungal activity against Candida albicans MTCC 3017 after 24 hrs by well diffusion method; type: functional; details: MTCC 3017, 24 h
Candida albicans [8] = experiment: Antifungal activity against Candida albicans MTCC 3958 after 24 hrs by well diffusion method; type: functional
Candida albicans [9] = experiment: Antifungal activity against Candida albicans MTCC 4748 after 24 hrs by well diffusion method; type: functional; details: MTCC 4748, 24 h
Candida albicans [10] = experiment: Antifungal activity against Candida albicans MTCC 7315 after 24 hrs by well diffusion method; type: functional; details: MTCC 7315, 24 h
Candida parapsilosis [11] = experiment: Antifungal activity against Candida parapsilosis MTCC 1744 after 24 hrs by well diffusion method; type: functional; details: MTCC 1744, 24 h
[Candida] aaseri [12] = Antifungal activity against Candida aaseri MTCC 1962 after 24 hrs by well diffusion method; type: functional; details: Yamadazyma aaseri, MTCC 1962, 24 h
Nakaseomyces glabratus [13] = experiment: Antifungal activity against Candida glabrata MTCC 3019 after 24 hrs by well diffusion method; type: functional; details: MTCC 3019, 24 h
Pichia kudriavzevii [14] = experiment: Antifungal activity against Candida krusei MTCC 3020 after 24 hrs by well diffusion method; type: functional; details: MTCC 3020, 24 h
Pichia sporocuriosa [15] = experiment: Antifungal activity against Issatchenkia hanoiensis MTCC 4755 after 24 hrs by well diffusion method; type: functional; details: MTCC 4755, 24 h
Candida albicans [16] = experiment: Fungicidal activity against Candida albicans MTCC 183 incubated for 24 hrs followed by transfer of microbial suspension to Sabouraud dextrose agar plates and measured after 24 hrs post transfer; type: functional; details: MTCC 183, 24 h
Candida albicans [17] = experiment: Fungicidal activity against Candida albicans MTCC 227 incubated for 24 hrs followed by transfer of microbial suspension to Sabouraud dextrose agar plates and measured after 24 hrs post transfer; type: functional
Candida albicans [18] = experiment: Fungicidal activity against Candida albicans MTCC 854 incubated for 24 hrs followed by transfer of microbial suspension to Sabouraud dextrose agar plates and measured after 24 hrs post transfer; type: functional
Candida albicans [19] = experiment: Fungicidal activity against Candida albicans MTCC 1637 incubated for 24 hrs followed by transfer of microbial suspension to Sabouraud dextrose agar plates and measured after 24 hrs post transfer; type: functional
Candida albicans [20] = experiment: Fungicidal activity against Candida albicans MTCC 3017 incubated for 24 hrs followed by transfer of microbial suspension to Sabouraud dextrose agar plates and measured after 24 hrs post transfer; type: functional; details: MTCC 3017, 24 h
Candida albicans [21] = experiment: Fungicidal activity against Candida albicans MTCC 3018 incubated for 24 hrs followed by transfer of microbial suspension to Sabouraud dextrose agar plates and measured after 24 hrs post transfer; type: functional
Candida albicans [22] = experiment: Fungicidal activity against Candida albicans MTCC 3958 incubated for 24 hrs followed by transfer of microbial suspension to Sabouraud dextrose agar plates and measured after 24 hrs post transfer; type: functional
Candida albicans [23] = experiment: Fungicidal activity against Candida albicans MTCC 4748 incubated for 24 hrs followed by transfer of microbial suspension to Sabouraud dextrose agar plates and measured after 24 hrs post transfer; type: functional; details: MTCC 4748, 24 h
Candida albicans [24] = experiment: Fungicidal activity against Candida albicans MTCC 7315 incubated for 24 hrs followed by transfer of microbial suspension to Sabouraud dextrose agar plates and measured after 24 hrs post transfer; type: functional; details: MTCC 7315, 24 h
Candida parapsilosis [25] = experiment: Fungicidal activity against Candida parapsilosis MTCC 1744 incubated for 24 hrs followed by transfer of microbial suspension to Sabouraud dextrose agar plates and measured after 24 hrs post transfer; type: functional; details: Lodderomyces parapsilosis, MTCC 1744, 24 h
[Candida] aaseri [26] = Fungicidal activity against Candida aaseri MTCC 1962 incubated for 24 hrs followed by transfer of microbial suspension to Sabouraud dextrose agar plates and measured after 24 hrs post transfer; type: functional; details: Yamadazyma aaseri, MTCC 1962, 24 h
Nakaseomyces glabratus [27] = experiment: Fungicidal activity against Candida glabrata MTCC 3019 incubated for 24 hrs followed by transfer of microbial suspension to Sabouraud dextrose agar plates and measured after 24 hrs post transfer; type: functional; details: MTCC 3019, 24 h
Pichia kudriavzevii [28] = experiment: Fungicidal activity against Candida krusei MTCC 3020 incubated for 24 hrs followed by transfer of microbial suspension to Sabouraud dextrose agar plates and measured after 24 hrs post transfer; type: functional; details: MTCC 3020, 24 h
Pichia sporocuriosa [29] = experiment: Fungicidal activity against Issatchenkia hanoiensis MTCC 4755 incubated for 24 hrs followed by transfer of microbial suspension to Sabouraud dextrose agar plates and measured after 24 hrs post transfer; type: functional; details: MTCC 4755, 24 h
Bacillus subtilis [30] = experiment: Bactericidal activity against Bacillus subtilis MTCC 121 incubated for 24 hrs followed by transfer of microbial suspension to Mueller Hinton agar plates and measured after 24 hrs post transfer; type: functional
Bacillus subtilis [31] = experiment: Antibacterial activity against Bacillus subtilis MTCC 121 after 24 hrs by well diffusion method; type: functional
Staphylococcus aureus [32] = experiment: Antibacterial activity against Staphylococcus aureus MTCC 96 after 24 hrs by well diffusion method; type: functional; details: MTCC 96, 24 h
Staphylococcus aureus [33] = experiment: Antibacterial activity against Staphylococcus aureus MLS16 MTCC 2940 after 24 hrs by well diffusion method; type: functional
Micrococcus luteus [34] = experiment: Antibacterial activity against Micrococcus luteus MTCC 2470 after 24 hrs by well diffusion method; type: functional
Raoultella planticola [35] = experiment: Antibacterial activity against Klebsiella planticola MTCC 530 after 24 hrs by well diffusion method; type: functional
Escherichia coli [36] = experiment: Antibacterial activity against Escherichia coli MTCC 739 after 24 hrs by well diffusion method; type: functional
Pseudomonas aeruginosa [37] = experiment: Antibacterial activity against Pseudomonas aeruginosa MTCC 2453 after 24 hrs by well diffusion method; type: functional
Staphylococcus aureus [38] = experiment: Bactericidal activity against Staphylococcus aureus MTCC 96 incubated for 24 hrs followed by transfer of microbial suspension to Mueller Hinton agar plates and measured after 24 hrs post transfer; type: functional; details: MTCC 96, 24 h
Staphylococcus aureus [39] = experiment: Bactericidal activity against Staphylococcus aureus MLS16 MTCC 2940 incubated for 24 hrs followed by transfer of microbial suspension to Mueller Hinton agar plates and measured after 24 hrs post transfer; type: functional
Micrococcus luteus [40] = experiment: Bactericidal activity against Micrococcus luteus MTCC 2470 incubated for 24 hrs followed by transfer of microbial suspension to Mueller Hinton agar plates and measured after 24 hrs post transfer; type: functional
Raoultella planticola [41] = experiment: Bactericidal activity against Klebsiella planticola MTCC 530 incubated for 24 hrs followed by transfer of microbial suspension to Mueller Hinton agar plates and measured after 24 hrs post transfer; type: functional
Escherichia coli [42] = experiment: Bactericidal activity against Escherichia coli MTCC 739 incubated for 24 hrs followed by transfer of microbial suspension to Mueller Hinton agar plates and measured after 24 hrs post transfer; type: functional
Pseudomonas aeruginosa [43] = experiment: Bactericidal activity against Pseudomonas aeruginosa MTCC 2453 incubated for 24 hrs followed by transfer of microbial suspension to Mueller Hinton agar plates and measured after 24 hrs post transfer; type: functional
Bacillus subtilis [44] = experiment: Antibiofilm activity against Bacillus subtilis MTCC 121 after 24 hrs by crystal violet staining-based assay; type: functional, organism-based
Staphylococcus aureus [45] = experiment: Antibiofilm activity against Staphylococcus aureus MTCC 96 after 24 hrs by crystal violet staining-based assay; type: functional, organism-based; details: Staphylococcus aureus, MTCC 96, 24 h; read-out: IC50
Staphylococcus aureus [46] = experiment: Antibiofilm activity against Staphylococcus aureus MLS16 MTCC 2940 after 24 hrs by crystal violet staining-based assay; type: functional, organism-based
Pseudomonas aeruginosa [47] = experiment: Antibiofilm activity against Pseudomonas aeruginosa MTCC 2453 after 24 hrs by crystal violet staining-based assay; type: functional, organism-based
Raoultella planticola [48] = experiment: Antibiofilm activity against Klebsiella planticola MTCC 530 after 24 hrs by crystal violet staining-based assay; type: functional, organism-based

MIC (Candida albicans [2]): 7.8 µg/mL (≈ 18.7 µM)
MIC (Candida albicans [3]; MTCC 227, 24 h): 7.8 µg/mL (≈ 18.7 µM)
MIC (Candida albicans [4]; MTCC 854, 24 h): 7.8 µg/mL (≈ 18.7 µM)
MIC (Candida albicans [5]; MTCC 1637, 24 h): 7.8 µg/mL (≈ 18.7 µM)
MIC (Candida albicans [6]; MTCC 3018, 24 h): 7.8 µg/mL (≈ 18.7 µM)
MIC (Candida albicans [7]): 7.8 µg/mL (≈ 18.7 µM)
MIC (Candida albicans [8]; MTCC 3958, 24 h): 7.8 µg/mL (≈ 18.7 µM)
MIC (Candida albicans [9]): 7.8 µg/mL (≈ 18.7 µM)
MIC (Candida albicans [10]): 7.8 µg/mL (≈ 18.7 µM)
MIC (Candida parapsilosis [11]): 7.8 µg/mL (≈ 18.7 µM)
MIC ([Candida] aaseri [12]): 7.8 µg/mL (≈ 18.7 µM)
MIC (Nakaseomyces glabratus [13]): 7.8 µg/mL (≈ 18.7 µM)
MIC (Pichia kudriavzevii [14]): 7.8 µg/mL (≈ 18.7 µM)
MIC (Pichia sporocuriosa [15]): 7.8 µg/mL (≈ 18.7 µM)
Structure (SMILES): Clc1ccc(COC(Cn2ccnc2)c2ccc(Cl)cc2Cl)c(Cl)c1 (stereo unspecified) [MICONAZOLE]
inhibition (Candida albicans [1]): Dose-dependent effect
MFC (Candida albicans [16]): 7.8 µg/mL (≈ 18.7 µM)
MFC (Candida albicans [17]; MTCC 227, 24 h): 7.8 µg/mL (≈ 18.7 µM)
MFC (Candida albicans [18]; MTCC 854, 24 h): 15.6 µg/mL (≈ 37.5 µM)
MFC (Candida albicans [19]; MTCC 1637, 24 h): 7.8 µg/mL (≈ 18.7 µM)
MFC (Candida albicans [20]): 7.8 µg/mL (≈ 18.7 µM)
MFC (Candida albicans [21]; MTCC 3018, 24 h): 15.6 µg/mL (≈ 37.5 µM)
MFC (Candida albicans [22]; MTCC 3958, 24 h): 7.8 µg/mL (≈ 18.7 µM)
MFC (Candida albicans [23]): 7.8 µg/mL (≈ 18.7 µM)
MFC (Candida albicans [24]): 15.6 µg/mL (≈ 37.5 µM)
MFC (Candida parapsilosis [25]): 7.8 µg/mL (≈ 18.7 µM)
MFC ([Candida] aaseri [26]): 15.6 µg/mL (≈ 37.5 µM)
MFC (Nakaseomyces glabratus [27]): 7.8 µg/mL (≈ 18.7 µM)
MFC (Pichia kudriavzevii [28]): 15.6 µg/mL (≈ 37.5 µM)
MFC (Pichia sporocuriosa [29]): 15.6 µg/mL (≈ 37.5 µM)

MIC (Bacillus subtilis [31]): inactive
MIC (Staphylococcus aureus [32]): 31.2 µg/mL (≈ 64.4 µM)
MIC (Staphylococcus aureus [33]): inactive
MIC (Micrococcus luteus [34]): inactive
MIC (Escherichia coli [36]): inactive
MIC (Pseudomonas aeruginosa [37]): inactive
MIC (Candida albicans [2]): 31.2 µg/mL (≈ 64.4 µM)
MIC (Candida albicans [3]): inactive
MIC (Candida albicans [4]): inactive
MIC (Candida albicans [5]): inactive
MIC (Candida albicans [6]): inactive
MIC (Candida albicans [7]): 31.2 µg/mL (≈ 64.4 µM)
MIC (Candida albicans [8]): inactive
MIC (Candida albicans [9]): 62.5 µg/mL (≈ 129 µM)
MIC (Candida albicans [10]): 62.5 µg/mL (≈ 129 µM)
MIC (Candida parapsilosis [11]): 31.2 µg/mL (≈ 64.4 µM)
MIC ([Candida] aaseri [12]): 31.2 µg/mL (≈ 64.4 µM)
MIC (Nakaseomyces glabratus [13]): 15.6 µg/mL (≈ 32.2 µM)
MIC (Pichia kudriavzevii [14]): 15.6 µg/mL (≈ 32.2 µM)
MIC (Pichia sporocuriosa [15]): 31.2 µg/mL (≈ 64.4 µM)
IC50 (Bacillus subtilis [44]): Not Active
IC50 (Staphylococcus aureus [45]): 21.6 µg/mL (≈ 44.6 µM)
IC50 (Staphylococcus aureus [46]): Not Active
IC50 (Pseudomonas aeruginosa [47]): Not Active
Structure (SMILES): O=C(NCc1ccccc1)c1nc(-c2ccccc2)c2c(C(F)(F)F)cc(-c3ccccc3)nc2n1
MBC (Bacillus subtilis [30]): inactive
MIC (Raoultella planticola [35]): inactive
MBC (Staphylococcus aureus [38]): 31.2 µg/mL (≈ 64.4 µM)
MBC (Staphylococcus aureus [39]): inactive
MBC (Micrococcus luteus [40]): inactive
MBC (Raoultella planticola [41]): inactive
MBC (Escherichia coli [42]): inactive
MBC (Pseudomonas aeruginosa [43]): inactive
MFC (Candida albicans [16]): 62.5 µg/mL (≈ 129 µM)
MFC (Candida albicans [17]): inactive
MFC (Candida albicans [18]): inactive
MFC (Candida albicans [19]): inactive
MFC (Candida albicans [20]): 62.5 µg/mL (≈ 129 µM)
MFC (Candida albicans [21]): inactive
MFC (Candida albicans [22]): inactive
MFC (Candida albicans [23]): 62.5 µg/mL (≈ 129 µM)
MFC (Candida albicans [24]): 62.5 µg/mL (≈ 129 µM)
MFC (Candida parapsilosis [25]): 62.5 µg/mL (≈ 129 µM)
MFC ([Candida] aaseri [26]): 62.5 µg/mL (≈ 129 µM)
MFC (Nakaseomyces glabratus [27]): 31.2 µg/mL (≈ 64.4 µM)
MFC (Pichia kudriavzevii [28]): 31.2 µg/mL (≈ 64.4 µM)
MFC (Pichia sporocuriosa [29]): 62.5 µg/mL (≈ 129 µM)
IC50 (Raoultella planticola [48]): Not Active

From ChEMBL document CHEMBL4219190, “Studies on synthesis of novel pyrido[2,3-d]pyrimidine derivatives, evaluation of their antimicrobial activity and molecular docking” (Bioorg Med Chem Lett, 2018)
